{
  "source": "patent US20120071536A1",
  "about": "“N-[(2-AZABICYCLO[2.1.1]HEX-1-YL)-ARYL-METHYL]-BENZAMIDE DERIVATIVES, PREPARATION THEREOF, AND THERAPEUTIC USE THEREOF” (SANOFI, priority 2009, published 2012)",
  "key": {"[1]": {"molecular_target": "T1, native human transporter GlyT1 (Homo sapiens, UniProt P48067)", "T1 construct": "expressing the native human transporter GlyT1; endogenous in cells; host or cells: SK-N-MC cells (human neuroepithelial cells)", "T1 sequence (P48067 1-706)": "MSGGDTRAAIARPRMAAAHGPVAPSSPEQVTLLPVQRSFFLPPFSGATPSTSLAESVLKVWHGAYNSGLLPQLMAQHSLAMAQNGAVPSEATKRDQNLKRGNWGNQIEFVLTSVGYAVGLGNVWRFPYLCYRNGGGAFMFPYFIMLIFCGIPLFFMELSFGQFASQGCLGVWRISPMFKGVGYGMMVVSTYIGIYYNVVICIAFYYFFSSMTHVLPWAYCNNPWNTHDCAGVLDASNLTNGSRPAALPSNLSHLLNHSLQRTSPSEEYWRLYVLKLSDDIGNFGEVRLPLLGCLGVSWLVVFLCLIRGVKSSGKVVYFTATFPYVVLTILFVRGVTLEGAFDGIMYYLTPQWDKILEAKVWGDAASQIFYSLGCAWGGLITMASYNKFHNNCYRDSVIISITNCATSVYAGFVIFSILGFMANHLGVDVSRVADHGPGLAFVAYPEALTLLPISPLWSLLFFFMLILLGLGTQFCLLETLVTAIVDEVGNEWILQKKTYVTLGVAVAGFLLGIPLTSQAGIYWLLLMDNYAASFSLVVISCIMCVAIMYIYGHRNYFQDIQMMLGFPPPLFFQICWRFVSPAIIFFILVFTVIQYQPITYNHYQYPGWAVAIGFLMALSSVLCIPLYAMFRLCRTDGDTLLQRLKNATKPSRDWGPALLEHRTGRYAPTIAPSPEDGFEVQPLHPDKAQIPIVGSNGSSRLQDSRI", "experiment": "Uptake of [14C]glycine in SK-N-MC cells expressing the native human transporter GlyT1", "assay_type": "cell-based", "details": "10 μM [14C]glycine, 10 min at 37° C., pH 7.4, read-out: IC50 (concentration of the compound which reduces by 50% the specific uptake of glycine)", "description": "Study of Glycine Transportation in SK-N-MC Cells Expressing the Native Human Transporter GlyT1.\nThe uptake of [^14C]glycine is studied in SK-N-MC cells (human neuroepithelial cells) expressing the native human transporter GlyT1 by measuring the radioactivity incorporated in the presence or absence of the test compound. The cells are cultured as a monolayer for 48 hours in plates pretreated with 0.02% fibronectin. On the day of the experiment, the culture medium is removed and the cells are washed with Krebs-HEPES (4-(2-hydroxyethyl)piperazine-1-ethanesulphonic acid) buffer at pH 7.4. After preincubation for 10 minutes at 37° C. in the presence either of buffer (control batch) or of test compound at various concentrations or of 10 mM of glycine (determination of the non-specific uptake), 10 μM of [^14C]glycine (specific activity 112 mCi/mmol) are subsequently added. Incubation is continued for 10 min at 37° C. and the reaction is halted by washing twice with pH 7.4 Krebs-HEPES buffer. The radioactivity incorporated by the cells is then estimated after adding 100 μl of liquid scintillant and stirring for 1 h. Counting is carried out on a Microbeta Tri-Lux™ counter. The effectiveness of the compound is determined by the IC50, the concentration of the compound which reduces by 50% the specific uptake of glycine, defined by the difference in radioactivity incorporated by the control batch and the batch which received the 10 mM glycine."}},
  "note": "Counter-ions that a name gives are not always drawn.",
  "data": [
    {"smiles": "CSc1ccc(Cl)c(C(=O)NC(c2ccccc2)C23CC(CN2)C3)c1", "note": "(racemic) [Compound 11, N-[(2-Azabicyclo[2.1.1]hex-1-yl)(phenyl)methyl]-2-chloro-5-(methylsulphanyl)-benzamide]", "values": [
      {"measurement": "IC50", "setting": "[1]", "value": 160, "unit": "nM"},
      {"measurement": "melting point", "value": "115 to 117", "unit": "°C"}
    ]},
    {"smiles": "CCc1ccccc1C(=O)NC(c1ccccc1)C12CC(CN1CC)C2", "note": "(racemic) [Compound 31, 2-Ethyl-N-[(2-ethyl-2-azabicyclo[2.1.1]hex-1-yl)(phenyl)methyl]benzamide]", "values": [
      {"measurement": "IC50", "setting": "[1]", "value": 1.6, "unit": "nM"}
    ]},
    {"smiles": "O=C(NC(c1ccccc1)C12CC(CN1CC(F)(F)F)C2)c1c(Cl)ccc(C(F)(F)F)c1Cl", "note": "(racemic) [Compound 23, 2,6-Dichloro-N-{(phenyl)[2-(2,2,2-trifluoroethyl)-2-azabicyclo[2.1.1]hex-1-yl]methyl}-3-(trifluoromethyl)benzamide]", "values": [
      {"measurement": "IC50", "setting": "[1]", "value": 300, "unit": "nM"},
      {"measurement": "melting point", "value": "82 to 83", "unit": "°C"}
    ]},
    {"smiles": "CN1CC2CC1(C(NC(=O)c1cccc(C(F)(F)F)c1Cl)c1ccccc1)C2.Cl", "note": "(racemic) [Compound 18, 2-Chloro-N-[(2-methyl-2-azabicyclo[2.1.1]hex-1-yl)(phenyl)methyl]-3-(trifluoromethyl)benzamide hydrochloride (1:1)]", "values": [
      {"measurement": "IC50", "setting": "[1]", "value": 21, "unit": "nM"},
      {"measurement": "melting point", "value": "168.5 to 169.5", "unit": "°C"}
    ]},
    {"smiles": "CC(C)(O)CN1CC2CC1(C(NC(=O)c1c(Cl)ccc(C(F)(F)F)c1Cl)c1ccccc1)C2", "note": "(racemic) [Compound 22]", "values": [
      {"measurement": "IC50", "setting": "[1]", "value": 110, "unit": "nM"}
    ]},
    {"smiles": "Nc1ccc(C(NC(=O)c2cccc(C(F)(F)F)c2Cl)C23CC(CN2)C3)cc1", "note": "(racemic) [Compound 1, N-[(4-Aminophenyl)(2-azabicyclo[2.1.1]hex-1-yl)methyl]-2-chloro-3-(trifluoromethyl)-benzamide]", "values": [
      {"measurement": "IC50", "setting": "[1]", "value": 1100, "unit": "nM"}
    ]},
    {"smiles": "O=C(NC(c1ccccc1)C12CC(CN1)C2)c1cccc(C(F)(F)F)c1Cl", "note": "(racemic) [Compound 5, N-[(2-azabicyclo[2.1.1]hex-1-yl)(phenyl)methyl]-2-chloro-3-(trifluoromethyl)benzamide hydrochloride (1:1)]", "values": [
      {"measurement": "IC50", "setting": "[1]", "value": 26, "unit": "nM"}
    ]}
  ]
}
